System: KRAS PDC multicell spheroid viability
Experiment: Anticancer human tumor 825966-067-R-J1-PDC patient-derived colon carcinoma cell line growth inhibition [KRAS2]
Conditions: for IC50: curve of first compound; for viability, T/C: stronger effect = lower value
How it was run: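 KRAS-mutant tumor cells were grown as spheroids with HUVEC endothelial cells and human MSCs as stroma. Targeted agents were tested alone and with KRAS pathway inhibitors. Doses started at or near clinical Cmax, or 10 microM, descending half-log.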

[1] = second compound 0.0316 µM, first compound 0.0316 µM
[2] = second compound 0.0316 µM, first compound 0.1 µM
[3] = second compound 0.0316 µM, first compound 0.316 µM
[4] = second compound 0.0316 µM, first compound 1 µM
[5] = second compound 0.0316 µM, first compound 3.16 µM
[6] = second compound 0.0316 µM, first compound 10 µM
[7] = second compound 0.1 µM, first compound 0.0316 µM
[8] = second compound 0.1 µM, first compound 0.1 µM
[9] = second compound 0.1 µM, first compound 0.316 µM
[10] = second compound 0.1 µM, first compound 1 µM
[11] = second compound 0.1 µM, first compound 3.16 µM
[12] = second compound 0.1 µM, first compound 10 µM
[13] = second compound 0.316 µM, first compound 0.0316 µM
[14] = second compound 0.316 µM, first compound 0.1 µM
[15] = second compound 0.316 µM, first compound 0.316 µM
[16] = second compound 0.316 µM, first compound 1 µM
[17] = second compound 0.316 µM, first compound 3.16 µM
[18] = second compound 0.316 µM, first compound 10 µM
[19] = second compound 1 µM, first compound 0.0316 µM
[20] = second compound 1 µM, first compound 0.1 µM
[21] = second compound 1 µM, first compound 0.316 µM
[22] = second compound 1 µM, first compound 1 µM
[23] = second compound 1 µM, first compound 3.16 µM
[24] = second compound 1 µM, first compound 10 µM
[25] = second compound 3.16 µM, first compound 0.0316 µM
[26] = second compound 3.16 µM, first compound 0.1 µM
[27] = second compound 3.16 µM, first compound 0.316 µM
[28] = second compound 3.16 µM, first compound 1 µM
[29] = second compound 3.16 µM, first compound 3.16 µM
[30] = second compound 3.16 µM, first compound 10 µM
[31] = second compound 0.0316 µM, first compound 0.000316 µM
[32] = second compound 0.0316 µM, first compound 0.001 µM
[33] = second compound 0.0316 µM, first compound 0.00316 µM
[34] = second compound 0.0316 µM, first compound 0.01 µM
[35] = second compound 0.1 µM, first compound 0.000316 µM
[36] = second compound 0.1 µM, first compound 0.001 µM
[37] = second compound 0.1 µM, first compound 0.00316 µM
[38] = second compound 0.1 µM, first compound 0.01 µM
[39] = second compound 0.316 µM, first compound 0.000316 µM
[40] = second compound 0.316 µM, first compound 0.001 µM
[41] = second compound 0.316 µM, first compound 0.00316 µM
[42] = second compound 0.316 µM, first compound 0.01 µM
[43] = second compound 1 µM, first compound 0.000316 µM
[44] = second compound 1 µM, first compound 0.001 µM
[45] = second compound 1 µM, first compound 0.00316 µM
[46] = second compound 1 µM, first compound 0.01 µM
[47] = second compound 3.16 µM, first compound 0.000316 µM
[48] = second compound 3.16 µM, first compound 0.001 µM
[49] = second compound 3.16 µM, first compound 0.00316 µM
[50] = second compound 3.16 µM, first compound 0.01 µM
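Note: spheroids exposed to compounds for 7 days.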
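Throughout, for viability, T/C: 100% = DMSO vehicle control viability.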

SMILES | IC50 (second compound 0.0316 µM) [nM] | IC50 (second compound 0.1 µM) [nM] | IC50 (second compound 0.316 µM) [nM] | IC50 (second compound 1 µM) [nM] | IC50 (second compound 3.16 µM) [nM] | viability, T/C [1] [%] | viability, T/C [2] [%] | viability, T/C [3] [%] | viability, T/C [4] [%] | viability, T/C [7] [%] | viability, T/C [8] [%] | viability, T/C [9] [%] | viability, T/C [10] [%] | viability, T/C [13] [%] | viability, T/C [14] [%] | viability, T/C [15] [%] | viability, T/C [19] [%] | viability, T/C [20] [%] | viability, T/C [25] [%] | viability, T/C [26] [%] | also measured
CC(C)NCC(C(=O)N1CCN(c2ncnc3c2C(C)CC3O)CC1)c1ccc(Cl)cc1 (stereo not given) + C=CC(=O)N1CCN(c2nc(OCC3CCCN3C)nc3c2CCN(c2cccc4cccc(C)c24)C3)CC1CC#N | 2180 | 2430 | 2140 | 1870 | 447 | 105 | 114 | 131 | 94.2 | 83.8 | 99.2 | 126 | 126 | 87.7 | 118 | 137 | 86.9 | 98.3 | 84.5 | 56.9 | viability, T/C [5]: 29.3%; viability, T/C [6]: 10.8%; viability, T/C [11]: 32.3%; viability, T/C [12]: 9.94%; viability, T/C [16]: 101%; viability, T/C [17]: 23.3%; viability, T/C [18]: 9.48%; viability, T/C [21]: 124%; viability, T/C [22]: 88.1%; viability, T/C [23]: 17.6%; viability, T/C [24]: 5.49%; viability, T/C [27]: 66%; viability, T/C [28]: 13.9%; viability, T/C [29]: 2.27%; viability, T/C [30]: 0.81%
CC(C)n1nc(-c2ccc3oc(N)nc3c2)c2c(N)ncnc21 + C=CC(=O)N1CCN(c2nc(OCC3CCCN3C)nc3c2CCN(c2cccc4cccc(C)c24)C3)CC1CC#N | > 100 | > 100 | > 100 | > 100 | 9.07 | 113 | 141 | – | – | 113 | 108 | – | – | 115 | 94.7 | – | 98.7 | 85.2 | 64.4 | 31.2 | viability, T/C [31]: 111%; viability, T/C [32]: 86.4%; viability, T/C [33]: 116%; viability, T/C [34]: 153%; viability, T/C [35]: 81.6%; viability, T/C [36]: 106%; viability, T/C [37]: 119%; viability, T/C [38]: 162%; viability, T/C [39]: 92%; viability, T/C [40]: 97.3%; viability, T/C [41]: 129%; viability, T/C [42]: 154%; viability, T/C [43]: 89.3%; viability, T/C [44]: 108%; viability, T/C [45]: 105%; viability, T/C [46]: 154%; viability, T/C [47]: 106%; viability, T/C [48]: 84.9%; viability, T/C [49]: 116%; viability, T/C [50]: 39.9%
CC1(C)CCC(CN2CCN(c3ccc(C(=O)NS(=O)(=O)c4ccc(NCC5CCOCC5)c([N+](=O)[O-])c4)c(Oc4cnc5[nH]ccc5c4)c3)CC2)=C(c2ccc(Cl)cc2)C1 + C=CC(=O)N1CCN(c2nc(OCC3CCCN3C)nc3c2CCN(c2cccc4cccc(C)c24)C3)CC1CC#N | 1850 | 1790 | 1770 | 1810 | 347 | 104 | 96 | 84.3 | 93 | 96.7 | 72 | 98.6 | 96.3 | 93.8 | 88.8 | 87.9 | 98.6 | 103 | 89 | 78.2 | viability, T/C [5]: 12.6%; viability, T/C [6]: 0.73%; viability, T/C [11]: 9.74%; viability, T/C [12]: 5.69%; viability, T/C [16]: 93.4%; viability, T/C [17]: 8.01%; viability, T/C [18]: 5.23%; viability, T/C [21]: 100%; viability, T/C [22]: 104%; viability, T/C [23]: 1.8%; viability, T/C [24]: 0.52%; viability, T/C [27]: 54.7%; viability, T/C [28]: 10.2%; viability, T/C [29]: 0.3%; viability, T/C [30]: 2.95%
CCN1CCN(Cc2ccc(Nc3ncc(F)c(-c4cc(F)c5nc(C)n(C(C)C)c5c4)n3)nc2)CC1 + C=CC(=O)N1CCN(c2nc(OCC3CCCN3C)nc3c2CCN(c2cccc4cccc(C)c24)C3)CC1CC#N | > 1000 | > 1000 | > 1000 | > 1000 | 397 | 91 | 113 | 158 | 153 | 108 | 165 | 198 | 123 | 119 | 86.5 | 160 | 102 | 166 | 133 | 125 | viability, T/C [33]: 93.5%; viability, T/C [34]: 112%; viability, T/C [37]: 97.1%; viability, T/C [38]: 114%; viability, T/C [41]: 103%; viability, T/C [42]: 105%; viability, T/C [16]: 115%; viability, T/C [45]: 95.7%; viability, T/C [46]: 110%; viability, T/C [21]: 167%; viability, T/C [22]: 112%; viability, T/C [49]: 83.7%; viability, T/C [50]: 114%; viability, T/C [27]: 61.6%; viability, T/C [28]: 2.39%
COc1cc2nccc(Oc3ccc(NC(=O)C4(C(=O)Nc5ccc(F)cc5)CC4)cc3)c2cc1OC + C=CC(=O)N1CCN(c2nc(OCC3CCCN3C)nc3c2CCN(c2cccc4cccc(C)c24)C3)CC1CC#N | 1640 | 1800 | 1660 | 1590 | 688 | 96.4 | 106 | 84 | 83.1 | 117 | 97.3 | 74.1 | 86.3 | 122 | 91.6 | 107 | 103 | 78.7 | 86.1 | 83.6 | viability, T/C [5]: 4.36%; viability, T/C [6]: 8.53%; viability, T/C [11]: 15.3%; viability, T/C [12]: 7.78%; viability, T/C [16]: 79.7%; viability, T/C [17]: 12%; viability, T/C [18]: 7.79%; viability, T/C [21]: 78.1%; viability, T/C [22]: 81.3%; viability, T/C [23]: 3.62%; viability, T/C [24]: 2%; viability, T/C [27]: 108%; viability, T/C [28]: 29.5%; viability, T/C [29]: 0.34%; viability, T/C [30]: 0.17%
Cn1ncnc1[C@H]1c2n[nH]c(=O)c3cc(F)cc(c23)N[C@@H]1c1ccc(F)cc1 + C=CC(=O)N1CCN(c2nc(OCC3CCCN3C)nc3c2CCN(c2cccc4cccc(C)c24)C3)CC1CC#N | > 100 | > 100 | > 100 | > 100 | > 100 | 85.2 | 82.5 | – | – | 81.5 | 77 | – | – | 91.4 | 82.5 | – | 112 | 98.9 | 84.6 | 102 | viability, T/C [31]: 108%; viability, T/C [32]: 108%; viability, T/C [33]: 91.5%; viability, T/C [34]: 78%; viability, T/C [35]: 86.3%; viability, T/C [36]: 106%; viability, T/C [37]: 119%; viability, T/C [38]: 80%; viability, T/C [39]: 120%; viability, T/C [40]: 103%; viability, T/C [41]: 133%; viability, T/C [42]: 88.1%; viability, T/C [43]: 127%; viability, T/C [44]: 103%; viability, T/C [45]: 98.6%; viability, T/C [46]: 91.3%; viability, T/C [47]: 86.5%; viability, T/C [48]: 123%; viability, T/C [49]: 112%; viability, T/C [50]: 120%

Reference: PubChem BioAssay AID1963865 (Molecular Pharmacology Branch, DTP, NCI, 2024)
